Measured values published in PubChem BioAssay AID2060488 (Molecular Pharmacology Branch, DTP, NCI, 2025).
Values joined by “and” are separate entries in the source; they are usually repeats but may differ in a detail not shown here. Identical values can stand only once.

Tested on: 966289-007-R4-J1-PDC complex spheroid viability
Assay: Anticancer human tumor 966289-007-R4-J1-PDC patient-derived pancreatic adenocarcinoma cell line growth inhibition [GQUAD]
Conditions: for viability, T/C: stronger effect = lower value
Source text: DNA G-quadruplex Stabilizer Agents in Combinations in Complex Spheroids
A high-throughput screen of multi-cell type tumor spheroids was designed to identify active combinations of DNA G-quadruplex stabilizer agents and targeted small molecules. Complex spheroids include a stromal component modeled by human endothelial cells (HUVEC) and fibroblasts modeled by human mesenchymal stem cells (MSCs). The concentration ranges selected for each drug and investigational agent were based upon clinically achievable concentrations if the clinical Cmax of the agent was known.
Compounds. The drugs and investigational agents: pidnarulex (CX-5461; NSC782164), APTO-253 (NSC789042), BRACO-19 (NSC847499), peposertib (NSC802822), ceralasertib (NSC780249), elimusertib (NSC800525), camonsertib (NSC841442), AZD-1390 (NSC803789), olaparib (NSC753686), talazoparib (NSC767125), ART-558 (NSC835418), sotorasib (NSC818433), MRTX-1133 (NSC836407), SN-38 (NSC673596), topotecan (NSC609699), etoposide (NSC141540), doxorubicin (NSC123127), gemcitabine (NSC613327), 5-fluorouracil (NSC19893), paclitaxel (NSC125973), vemurafenib (NSC761431), panobinostat (NSC761190), R-306465 (JNJ-16241199; NSC773264), adavosertib (NSC754352), TP-3654 (NSC805149), carboplatin (NSC241240), KSQ-4279 (NSC840948), and staurosporine (NSC755774) were obtained from the National Cancer Institute (NCI) Developmental Therapeutics Program Chemical Repository (34). The FDA-approved anticancer drug set is available from the NCI Developmental Therapeutics Program. […] The stock solutions were prepared in dimethyl sulfoxide (DMSO, Sigma-Aldrich, St. Louis, MO, cat. D2650) at 800-fold the tested concentration and stored at -70 degrees C prior to their use. All drugs and investigational agents were tested over a range starting from a high concentration at or near the clinical Cmax and decreasing in half-log increments. If the clinical Cmax for an agent had not been determined, the highest concentration tested was 10 microM.
2.3 Cell Culture. All cells were maintained in an incubator at 37 degrees C and 5% CO2 with 95% humidity. The PDC lines were cultured according to standard operating procedures established by the NCI PDMR. All PDCs were thawed and cultured in Matrigel-coated flasks prepared with a working solution of 1X Ham's F-12 nutrient mix, without supplementation (Invitrogen, cat. 11765054), 100 U/mL penicillin-streptomycin (Invitrogen, cat. 15140122), and 2.5% Matrigel (Corning Inc., cat. 354248) for the first three passages. The 857933-349-R-J2-PDC line was cultured in 6C/Colon 1B media, which includes advanced DMEM/F-12 (Thermo Fisher Scientific, cat. 12634028), 10 mM HEPES (Thermo Fisher Scientific, cat. 15630080), 1X GlutaMAX supplement (Thermo Fisher Scientific, cat. 35050061), 0.1 mg/mL primocin (InvivoGen, cat. ant-pm-2), 10% defined fetal bovine serum, heat inactivated (HyClone Laboratories Inc., cat. SH30070.03HI), 50% L-WRN conditioned media (ATCC, cat. CRL-3276), 1.25 mM N-Acetyl-L-cysteine (Sigma-Aldrich, cat. A9165), 10 mM nicotinamide (Sigma-Aldrich, cat. N0636), 1X B-27 supplement (Thermo Fisher Scientific, cat. 17504044), 1X N-2 supplement (Thermo Fisher Scientific, cat. 17502048), 10 microM Y-27632 dihydrochloride (Tocris Bioscience, cat. 1254), and 50 ng/mL human EGF recombinant protein (Thermo Fisher Scientific, cat. PHG0311). The 485176-168-R4-J1-PDC line was cultured in Panc media, which includes all 6C/Colon 1B media components plus 100 ng/mL human FGF-10 (Thermo Fisher Scientific, cat. 100-26), 500 nM SB-431542 (Selleckchem, cat. S1067), and gastrin (Tocris, cat. 3006).
[…]
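Further: spheroids exposed to the agents for seven days before readout.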
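Wherever viability, T/C is given: percent viability relative to DMSO vehicle control wells taken as 100%.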

Q: Which viability, T/C (compound 0.0316 µM) does the source give for `CC1COCCN1c1cc(C2(O)CC3CCC(C2)O3)c2cnn(-c3ccn[nH]3)c2n1` (stereo not drawn) here?
A: 112% and 111% and 109%

Q: What about the viability, T/C (compound 0.1 µM) of the same compound?
A: 64.2% and 55% and 74.8%

Q: What about the viability, T/C (compound 0.316 µM) of the same compound?
A: 16.3% and 13.5% and 20.4%

Q: And the viability, T/C (compound 1 µM)?
A: 5.75% and 6.02% and 11.2%

Q: And the viability, T/C (compound 3.16 µM)?
A: 4.81% and 4.92% and 6.7%

Q: And the viability, T/C (compound 10 µM)?
A: 4.35% and 4.17% and 5.99%

Q: What about the IC50 (curve of compound) of the same compound?
A: 141 nM and 115 nM and 170 nM

Q: Which viability, T/C (compound 0.0316 µM) does the source give for `Cc1cccc(N(C)C(=O)C2C(O)CCN2c2nc(C)cc(C(F)(F)F)c2C#N)c1` (stereo not drawn) here?
A: 92% and 111% and 99.9%

Q: What about the viability, T/C (compound 0.1 µM) of the same compound?
A: 98.4% and 97.2% and 95.8%

Q: And the viability, T/C (compound 0.316 µM)?
A: 103% (2×) and 109%

Q: And the viability, T/C (compound 1 µM)?
A: 94.9% and 98% and 99.5%

Q: And the viability, T/C (compound 3.16 µM)?
A: 107% and 106% and 89.2%

Q: What about the viability, T/C (compound 10 µM) of the same compound?
A: 102% and 107% (2×)

Q: What about the IC50 (curve of compound) of the same compound?
A: > 10000 nM

Q: What does the source list for `CC(C)n1c(=O)n(C)c2cnc3cc(F)c(-c4ccc(OCCCN5CCCCC5)nc4)cc3c21`?
A: viability, T/C (compound 0.0316 µM): 101% and 103% and 95.4%; viability, T/C (compound 0.1 µM): 103% and 106% (2×); viability, T/C (compound 0.316 µM): 114% and 106% and 102%; viability, T/C (compound 1 µM): 107% and 105% and 114%; viability, T/C (compound 3.16 µM): 107% (2×) and 116%; viability, T/C (compound 10 µM): 86% and 88.6% and 91.8%; IC50 (curve of compound): > 10000 nM

Q: For `CC[C@@]1(O)C(=O)OCc2c1cc1n(c2=O)Cc2cc3c(CN(C)C)c(O)ccc3nc2-1` + Cc1[nH]c2ccc(F)cc2c1-c1nc2c3cccnc3c3ncccc3c2[nH]1, which IC50 (curve of first compound, second compound 0.0316 µM) is on record?
A: 44.6 nM

Q: What about the IC50 (curve of first compound, second compound 0.1 µM) of the same compound?
A: 48 nM

Q: And the IC50 (curve of first compound, second compound 0.316 µM)?
A: 50.2 nM

Q: And the IC50 (curve of first compound, second compound 1 µM)?
A: 49.2 nM

Q: And the IC50 (curve of first compound, second compound 3.16 µM)?
A: 36.9 nM

Q: What about the IC50 (curve of first compound, second compound 10 µM) of the same compound?
A: 25.9 nM

Q: And the viability, T/C (second compound 0.0316 µM, first compound 0.000999 µM)?
A: 102%

Q: What about the viability, T/C (second compound 0.0316 µM, first compound 0.00316 µM) of the same compound?
A: 94.6%

Q: What about the viability, T/C (second compound 0.0316 µM, first compound 0.00999 µM) of the same compound?
A: 90.2%

Q: And the viability, T/C (second compound 0.0316 µM, first compound 0.0316 µM)?
A: 70.8%

Q: And the viability, T/C (second compound 0.0316 µM, first compound 0.0999 µM)?
A: 0.88%

Q: What about the viability, T/C (second compound 0.0316 µM, first compound 0.316 µM) of the same compound?
A: 0.48%

Q: And the viability, T/C (second compound 0.1 µM, first compound 0.000999 µM)?
A: 99.3%

Q: What about the viability, T/C (second compound 0.1 µM, first compound 0.00316 µM) of the same compound?
A: 101%

Q: And the viability, T/C (second compound 0.1 µM, first compound 0.00999 µM)?
A: 101%

Q: And the viability, T/C (second compound 0.1 µM, first compound 0.0316 µM)?
A: 78.2%

Q: What about the viability, T/C (second compound 0.1 µM, first compound 0.0999 µM) of the same compound?
A: 0.6%

Q: And the viability, T/C (second compound 0.1 µM, first compound 0.316 µM)?
A: 0.5%

Q: And the viability, T/C (second compound 0.316 µM, first compound 0.000999 µM)?
A: 94.1%

Q: And the viability, T/C (second compound 0.316 µM, first compound 0.00316 µM)?
A: 105%

Q: What about the viability, T/C (second compound 0.316 µM, first compound 0.00999 µM) of the same compound?
A: 110%

Q: And the viability, T/C (second compound 0.316 µM, first compound 0.0316 µM)?
A: 83.1%

Q: What about the viability, T/C (second compound 0.316 µM, first compound 0.0999 µM) of the same compound?
A: 0.88%

Q: And the viability, T/C (second compound 0.316 µM, first compound 0.316 µM)?
A: 0.49%

Q: What about the viability, T/C (second compound 1 µM, first compound 0.000999 µM) of the same compound?
A: 92.4%

Q: What about the viability, T/C (second compound 1 µM, first compound 0.00316 µM) of the same compound?
A: 95%

Q: And the viability, T/C (second compound 1 µM, first compound 0.00999 µM)?
A: 106%

Q: What about the viability, T/C (second compound 1 µM, first compound 0.0316 µM) of the same compound?
A: 80.9%

Q: And the viability, T/C (second compound 1 µM, first compound 0.0999 µM)?
A: 0.78%

Q: And the viability, T/C (second compound 1 µM, first compound 0.316 µM)?
A: 0.62%

Q: What about the viability, T/C (second compound 3.16 µM, first compound 0.000999 µM) of the same compound?
A: 105%

Q: And the viability, T/C (second compound 3.16 µM, first compound 0.00316 µM)?
A: 113%

Q: What about the viability, T/C (second compound 3.16 µM, first compound 0.00999 µM) of the same compound?
A: 115%

Q: What about the viability, T/C (second compound 3.16 µM, first compound 0.0316 µM) of the same compound?
A: 57.7%

Q: And the viability, T/C (second compound 3.16 µM, first compound 0.0999 µM)?
A: 0.9%

Q: And the viability, T/C (second compound 3.16 µM, first compound 0.316 µM)?
A: 0.56%

Q: What about the viability, T/C (second compound 10 µM, first compound 0.000999 µM) of the same compound?
A: 105%

Q: What about the viability, T/C (second compound 10 µM, first compound 0.00316 µM) of the same compound?
A: 106%

Q: What about the viability, T/C (second compound 10 µM, first compound 0.00999 µM) of the same compound?
A: 108%

Q: And the viability, T/C (second compound 10 µM, first compound 0.0316 µM)?
A: 38.2%

Q: What about the viability, T/C (second compound 10 µM, first compound 0.0999 µM) of the same compound?
A: 0.71%

Q: What about the viability, T/C (second compound 10 µM, first compound 0.316 µM) of the same compound?
A: 0.5%
